# Assay results taken from patent US20130131057A1, “NEW BICYCLIC COMPOUNDS AS PI3-K AND MTOR INHIBITORS” (CENTRO NACIONAL DE INVESTIGACIONES ONCOLOGICAS (CNIO, priority 2010, published 2013).
# “And” between values parts separate entries of the source, which are not always exact repeats. Equal values may be shown once.
# Biological target: T1, PI3K (p110α/p85α) (Homo sapiens, UniProt P42336)
# T1 construct: purchased Carna Biosciences 07CBS-0402A
# Experiment: PI3K activity assay (ADP Hunter Plus)
# Assay type: biochemical
# Details: read-out: PI3Kα IC50
# Protocol: The kinase activity was measured by using the commercial ADP Hunter™ Plus assay available from DiscoveRx, (#33-016), which is a homogeneous assay to measure the accumulation of ADP, a universal product of kinase activity. The enzyme, PI3K (p110α/p85α, was purchased from Carna Biosciences (#07CBS-0402A). The assay was done following the manufacturer recommendations with slight modifications: Mainly the kinase buffer was replace by 50 mM HEPES, pH 7.5, 3 mM MgCl2, 100 mM NaCl, 1 mM EGTA, 0.04% CHAPS, 2 mM TCEP and 0.01 mg/ml BGG. The PI3K was assayed in a titration experiment to determine the optimal protein concentration for the inhibition assay. To calculate the IC50 of the ETP-compounds, serial 1:5 dilutions of the compounds were added to the enzyme at a fixed concentration (2.5 μg/ml. The enzyme was preincubated with the inhibitor and 30 μM PIP2 substrate (P9763, Sigma) for 5 min and then ATP was added to a final 50 μM concentration. Reaction was carried out for 1 hour at 25° C. Reagent A and B were sequentially added to the wells and plates were incubated for 30 min at 37° C. Fluorescence counts were read in a Victor instrument (Perkin Elmer) with the recommended settings (544 and 580 nm as excitation and emission wavelengths, respectively). Values were normalized against the control activity included for each enzyme (i.e., 100% PI3 kinase activity, without compound). These values were plot against the inhibitor concentration and were fit to a sigmoid dose-response curve by using the Graphad software.
# T1 sequence (P42336 whole entry): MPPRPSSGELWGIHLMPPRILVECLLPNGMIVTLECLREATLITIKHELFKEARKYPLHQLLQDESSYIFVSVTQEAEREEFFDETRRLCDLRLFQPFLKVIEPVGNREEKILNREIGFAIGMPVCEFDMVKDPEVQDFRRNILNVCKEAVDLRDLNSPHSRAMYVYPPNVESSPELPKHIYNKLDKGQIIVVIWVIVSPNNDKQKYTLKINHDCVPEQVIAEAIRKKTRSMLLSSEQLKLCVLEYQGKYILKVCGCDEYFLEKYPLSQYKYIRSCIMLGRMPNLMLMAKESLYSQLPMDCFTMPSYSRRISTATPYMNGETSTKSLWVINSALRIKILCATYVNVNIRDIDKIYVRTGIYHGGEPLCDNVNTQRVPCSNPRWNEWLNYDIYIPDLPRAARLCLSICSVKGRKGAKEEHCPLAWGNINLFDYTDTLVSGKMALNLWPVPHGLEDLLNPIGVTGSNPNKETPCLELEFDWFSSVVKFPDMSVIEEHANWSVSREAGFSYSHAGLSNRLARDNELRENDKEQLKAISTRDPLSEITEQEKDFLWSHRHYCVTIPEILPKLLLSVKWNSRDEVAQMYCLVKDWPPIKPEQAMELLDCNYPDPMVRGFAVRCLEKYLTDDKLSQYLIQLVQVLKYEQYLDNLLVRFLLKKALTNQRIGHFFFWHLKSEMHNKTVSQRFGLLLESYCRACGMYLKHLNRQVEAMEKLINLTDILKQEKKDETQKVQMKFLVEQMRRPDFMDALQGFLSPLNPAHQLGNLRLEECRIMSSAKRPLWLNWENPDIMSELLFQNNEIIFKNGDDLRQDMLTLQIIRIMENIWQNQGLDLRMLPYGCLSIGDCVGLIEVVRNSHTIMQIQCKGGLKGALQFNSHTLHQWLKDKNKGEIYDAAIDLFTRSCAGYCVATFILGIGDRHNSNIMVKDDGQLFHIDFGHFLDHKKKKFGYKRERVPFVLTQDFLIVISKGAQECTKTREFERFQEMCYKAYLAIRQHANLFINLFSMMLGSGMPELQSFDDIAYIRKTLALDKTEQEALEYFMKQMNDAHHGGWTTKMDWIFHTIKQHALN
# T1 sequence (P27986 whole entry partner): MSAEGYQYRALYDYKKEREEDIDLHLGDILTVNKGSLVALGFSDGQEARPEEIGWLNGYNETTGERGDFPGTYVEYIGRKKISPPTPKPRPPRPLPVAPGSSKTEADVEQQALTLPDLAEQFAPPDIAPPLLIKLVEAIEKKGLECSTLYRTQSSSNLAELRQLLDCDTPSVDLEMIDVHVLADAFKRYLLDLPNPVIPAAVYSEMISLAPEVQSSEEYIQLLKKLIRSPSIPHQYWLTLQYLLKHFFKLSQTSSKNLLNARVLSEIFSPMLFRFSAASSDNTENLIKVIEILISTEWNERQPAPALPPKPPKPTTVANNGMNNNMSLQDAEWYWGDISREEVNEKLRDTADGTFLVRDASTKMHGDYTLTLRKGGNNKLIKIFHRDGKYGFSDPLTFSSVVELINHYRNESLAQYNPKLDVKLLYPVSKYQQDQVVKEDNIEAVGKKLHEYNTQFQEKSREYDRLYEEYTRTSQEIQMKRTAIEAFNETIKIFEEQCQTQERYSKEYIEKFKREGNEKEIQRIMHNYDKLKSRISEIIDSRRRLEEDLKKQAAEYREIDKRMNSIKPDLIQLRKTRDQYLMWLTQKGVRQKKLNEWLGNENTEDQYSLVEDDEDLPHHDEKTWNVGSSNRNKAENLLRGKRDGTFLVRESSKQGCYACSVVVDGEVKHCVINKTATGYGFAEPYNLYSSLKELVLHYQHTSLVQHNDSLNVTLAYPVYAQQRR
row,IC50,Structure (SMILES)
1,0.019 µM,NC(=O)c1cn2nc(-c3cnc(N)nc3)nc(N3CCOCC3)c2n1 [1-01]
2,0.003 µM,COCCNC(=O)c1cn2nc(-c3cnc(N)nc3)nc(N3CCOCC3)c2n1 [1-02]
3,0.029 µM and < 0.1 µM,COCCNC(=O)c1cc2c(N3CCOCC3)nc(-c3cnc(N)nc3)cn2n1 [1-03]
4,0.026 µM,Nc1ncc(-c2cn3nc(C(=O)NC4CCOCC4)cc3c(N3CCOCC3)n2)cn1 [1-04]
5,0.014 µM,"NC(=O)c1cc2c(N3CCOCC3)nc(-c3cnc(N)nc3)cn2n1 [1-05, 6-(2-amino-pyrimidin-5-yl)-4-morpholin-4-yl-pyrazolo[1,5-a]pyrazine-2-carboxylic acid amide]"
6,0.009 µM,"Nc1ncc(-c2cn3nc(C(=O)N4CCCC4)cc3c(N3CCOCC3)n2)cn1 [1-07, [6-(2-amino-pyrimidin-5-yl)-4-morpholin-4-yl-pyrazolo[1,5-a]pyrazin-2-yl]-pyrrolidin-1-yl-methanone]"
7,0.443 µM,"CN(C)CCCNC(=O)c1cc2c(N3CCOCC3)nc(-c3cnc(N)nc3)cn2n1 [1-09, 6-(2-amino-pyrimidin-5-yl)-4-morpholin-4-yl-pyrazolo[1,5-a]pyrazine-2-carboxylic acid (3-dimethylamino-propyl)-amide]"
8,0.016 µM,"Nc1ncc(-c2cn3nc(C(=O)N[C@H]4CC[C@H](O)CC4)cc3c(N3CCOCC3)n2)cn1 [1-10, 6-(2-amino-pyrimidin-5-yl)-4-morpholin-4-yl-pyrazolo[1,5-a]pyrazine-2-carboxylic acid (4-hydroxy-cyclohexyl)-amide]"
